According to ChEMBL document CHEMBL5143518, “Pyridazino-pyrrolo-quinoxalinium salts as highly potent and selective leishmanicidal agents targeting trypanothione reductase” (Eur J Med Chem, 2022):
The source made the active and inactive calls. No cut-off for these calls is given here.

Columns and labels:
Leishmania infantum [1] = experiment: Leishmanicidal activity against axenic amastigote stage of Leishmania infantum MCAN/ES/89/IPZ229/1/89 assessed as reduction of proliferation of amastigotes incubated for 24 hrs by propidium iodide staining based flow cytometry; type: functional, organism-based; settings: MCAN/ES/89/IPZ229/1/89, 24 h
[2] = Cytotoxicity against human THP-1 cells assessed as reduction in cell proliferation incubated for 24 hrs by propidium iodide staining based flow cytometry
[3] = Selectivity index, ratio of LC50 for cytotoxicity against human THP-1 cells to EC50 of leishmanicidal activity against axenic amastigote stage of Leishmania infantum MCAN/ES/89/IPZ229/1/89
Leishmania infantum [4] = experiment: Leishmanicidal activity against GFP-expressing axenic amastigote stage of Leishmania infantum MCAN/ES/89/IPZ229/1/89 infected in human THP-1 macrophage cells assessed as reduction in intracellular amastigotes incubated for 48 hrs by propidium iodide staining based flow cytometry; type: functional, organism-based; settings: MCAN/ES/89/IPZ229/1/89, THP-1, 48 h
Trypanothione reductase [5] = target: T1, Trypanothione reductase (Leishmania infantum, UniProt A4HSF7); experiment: Inhibition of recombinant His-tagged Leishmania infantum TryR oxidoreductase activity expressed in Escherichia coli BL21 (DE3) using TS2 and NADPH as substrate by DTNB-reagent based spectrophotometric method
Trypanothione reductase [6] = target: T1, Trypanothione reductase; experiment: Non competitive type inhibition of recombinant His-tagged Leishmania infantum TryR oxidoreductase activity expressed in Escherichia coli BL21 (DE3) assessed as inhibition constant using NADPH and varying concentration of TS2 as substrate by double reciprocal Lineweaver-Burk plot analysis
[7] = target: Trypanothione reductase (Leishmania infantum) (UniProt A4HSF7); experiment: Uncompetitive type inhibition of recombinant His-tagged Leishmania infantum TryR oxidoreductase activity expressed in Escherichia coli BL21 (DE3) assessed as inhibition constant using TS2 and varying concentration of NADPH as substrate by double reciprocal Lineweaver-Burk plot analysis
[8] = target: Trypanothione reductase (Leishmania infantum) (UniProt A4HSF7); experiment: Inhibition of recombinant His-tagged Leishmania infantum TryR expressed in Escherichia coli BL21 (DE3) assessed as TryR mediated cytochrome c reduction in presence of NADPH at 10 uM by spectrophotometric method

T1 sequence (A4HSF7 whole entry): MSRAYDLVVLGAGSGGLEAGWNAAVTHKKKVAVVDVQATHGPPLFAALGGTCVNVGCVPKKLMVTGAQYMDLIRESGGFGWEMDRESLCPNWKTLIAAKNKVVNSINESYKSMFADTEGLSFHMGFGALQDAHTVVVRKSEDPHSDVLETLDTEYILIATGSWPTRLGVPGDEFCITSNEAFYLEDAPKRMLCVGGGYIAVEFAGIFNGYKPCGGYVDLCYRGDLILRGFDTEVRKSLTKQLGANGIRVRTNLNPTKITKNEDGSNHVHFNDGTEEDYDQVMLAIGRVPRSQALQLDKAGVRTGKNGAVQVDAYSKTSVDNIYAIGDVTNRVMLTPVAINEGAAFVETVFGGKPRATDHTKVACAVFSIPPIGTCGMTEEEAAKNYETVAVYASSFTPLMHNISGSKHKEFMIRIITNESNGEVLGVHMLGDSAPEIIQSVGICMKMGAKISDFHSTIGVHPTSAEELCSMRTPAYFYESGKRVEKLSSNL
Trypanothione reductase (Leishmania infantum), sequence (A4HSF7 as listed by the source): as the sequence (A4HSF7 whole entry) above

SMILES	EC50 (Leishmania infantum [1]) [nM]	CC50 at 24 h [2] [nM]	selectivity ratio [3]	EC50 (Leishmania infantum [4]) [nM]	IC50 (Trypanothione reductase [5]) [nM]	Ki (Trypanothione reductase [6]) [nM]	alphaKi [7] [µM]	inhibition [8]
CCCCCCCCCCCCCCCCOP(=O)([O-])OCC[N+](C)(C)C [MILTEFOSINE]	520	7690	14.8	550	–	–	–	–
CCc1cc2c3ccc(Br)n3c3cc(Cl)ccc3[n+]2nc1CC	80	6850	85.6	1230	2980	2830	1.37	Active
CCc1cc2c3cccn3c3cc(Cl)ccc3[n+]2nc1CC	80	24300	304	3100	25700	–	–	–
CCN(CC)CCCC(C)Nc1c2ccc(Cl)cc2nc2ccc(OC)cc12 (stereo not drawn) [QUINACRINE]	–	–	–	–	13500	–	–	–
